In patent publication US20050159442A1, “Protein tyrosine phosphatase 1B (PTP-1B) inhibitors and methods of using the same” (priority 2003, published 2005):

Biological target: T1, human PTP-1B (Homo sapiens, UniProt P18031)
T1 construct: The fusion protein, which lacks the carboxyl terminus 35 amino acid residues of PTP-1B; made in house; host or cells: Escherichia coli (pGEX system)
T1 sequence (P18031 1-400 limits assumed): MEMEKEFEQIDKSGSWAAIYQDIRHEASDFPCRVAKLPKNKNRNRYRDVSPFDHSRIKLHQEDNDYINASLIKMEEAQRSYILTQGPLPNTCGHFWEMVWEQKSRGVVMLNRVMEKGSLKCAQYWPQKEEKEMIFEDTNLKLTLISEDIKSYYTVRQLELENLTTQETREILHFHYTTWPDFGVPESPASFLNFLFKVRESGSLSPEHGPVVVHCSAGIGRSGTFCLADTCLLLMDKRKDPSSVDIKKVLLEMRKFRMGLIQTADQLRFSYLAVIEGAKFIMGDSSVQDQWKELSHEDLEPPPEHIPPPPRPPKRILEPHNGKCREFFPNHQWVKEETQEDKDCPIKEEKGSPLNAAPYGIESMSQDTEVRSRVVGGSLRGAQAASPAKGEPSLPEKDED
Experiment: Assay for PTP-1B phosphatase activity (malachite green, phosphorylated insulin receptor peptide)
Assay type: biochemical
Conditions: truncated human PTP-1B GST fusion protein, phosphorylated kinase domain of insulin receptor-1 as substrate, absorbance at 650 nm, read-out: IC50 of inhibition of PTP-1B phosphatase activity
Description: PTP-1B phosphatase activity was measured as its ability to dephosphorylate a phosphorylated insulin receptor. In particular, a phosphorylated peptide derived from insulin receptor was used for the assay. The dephosphorylation reaction was monitored using a malachite green assay (Lanzetta et al., Anal Biochem. 1979, 100: 95-7), which measures the release of inorganic phosphate from the activated insulin receptor or the phosphorylated peptide derived from insulin receptor. A PTP-1B inhibitor decreases the yield of inorganic phosphate when it is added to the assay.
A substantially purified, soluble, truncated human PTP-1B GST fusion protein was used as the source of PTP-1B enzyme. […]
PTP-1B GST fusion protein (10 ng in 48 μl of assay buffer) was mixed with the phosphorylated kinase domain of insulin receptor-1 (70 μM in 201 μl of assay buffer) and the test compound (at desired concentration in 2 μl DMSO). […] After additional 30 minutes incubation at room temperature, the amount of inorganic phosphate released from the phosphorylated kinase domain of insulin receptor-1 in the reaction mixture was measured by the absorbance at 650 nm. […]

IC50: 910 nM
SMILES: Cc1ccc(CC/N=C2\N/C(=N\CCc3ccc(C)cc3)c3cnccc32)cc1 [Formula II, 1,3-Bis-(2-p-tolyl-ethylimino)-2,3-dihydro-1H-pyrrolo[3,4-c]pyridine]
